The record followed here is the NIST ThermoML archive (doi:10.1021/je034127q).

Each structure is given as a SMILES string. ± gives the expanded uncertainty stated by the source.

The conditions of the data set: Liquid.

As to `O=C=O` [carbon dioxide], the Critical pressure was 7420 ± 250 kPa and the Critical temperature came to 304.5 ± 2.5 K.

For `CCCCCC` [hexane], the Critical pressure is 3020 ± 250 kPa and the Critical temperature is reported as 507.4 ± 2.5 K.

As for `CO` [methanol], the Critical pressure turned out to be 8120 ± 250 kPa and the Critical temperature was determined as 512.6 ± 2.5 K.
